These results are taken from article PMC11678245, “The Molecular Basis of the Intrinsic and Acquired Resistance to Azole Antifungals in Aspergillus fumigatus” (Journal of Fungi, 2024).

For assay [1], the system named is S. cerevisiae Y2300 ADΔΔ CYP51 (ScCYP51). The assay can be described thus: MIC80 susceptibility, strain Y2300 (Table S1). The class given is cell-based, Saccharomyces cerevisiae. The note with it: Table S1; strain Y2300 ADΔΔ CYP51. On the procedure:
(§1) The susceptibilities of S. cerevisiae strains to antifungal drugs were determined as minimum growth inhibitory concentration (MIC) values in 200 μL SD pH 6.8 [24]. Serial 2-fold dilutions of 100 μL of azole or control drugs in SD pH 6.8 were prepared in a 96-well microtiter plate. A portion of a 2 mL SD pH 6.8 overnight culture of the test strain was inoculated into 3 mL fresh SD pH 6.8 and incubated for 4 to 6 h at 30 °C to generate logarithmic-phase cells. These cells were then diluted with fresh SD pH 6.8 to OD600nm = 0.01 (3 × 10^4 CFU), and 100 μL of this cell suspension was added to microtiter plate wells. Cell growth after 48 h incubation at 30 °C with shaking at 200 rpm was determined at 600 nm using a BioTek™ Synergy™ 2 multi-Mode microplate reader controlled using Gen5™ Data Analysis Software version 3.16.10 (BioTek Instruments, Winooski, VT, USA). MIC80 values (80% growth inhibition in the presence of the test drug compared with the untreated control) for each yeast construct were determined as technical triplicates repeated three times for three separate clones. […]
(§2) Table S1. Azole susceptibilities of ScCYP51 and ScCYP51 T322I expressed
(§3) Data for each strain was obtained for […] in three biological replicates.

In assay [2] the test system is S. cerevisiae Y2305 ADΔΔ CYP51 T322I (ScCYP51 T322I). Kind of assay: MIC80 susceptibility, strain Y2305 (Table S1). The format is cell-based, Saccharomyces cerevisiae. Here is the method:
as §1, §2, §3

For assay [3], the system named is S. cerevisiae strain ADΔΔ (native ScCYP51). Kind of assay: MIC80 susceptibility, host strain ADΔΔ. The class given is cell-based. The note with it: Saccharomyces cerevisiae, Table 2, SD pH 6.8, 48 h, 30 °C. On the procedure: (§4) The susceptibilities of S. cerevisiae strains to antifungal drugs were determined as minimum growth inhibitory concentration (MIC) values in 200 μL SD pH 6.8 [24]. Serial 2-fold dilutions of 100 μL of azole or control drugs in SD pH 6.8 were prepared in a 96-well microtiter plate. A portion of a 2 mL SD pH 6.8 overnight culture of the test strain was inoculated into 3 mL fresh SD pH 6.8 and incubated for 4 to 6 h at 30 °C to generate logarithmic-phase cells. These cells were then diluted with fresh SD pH 6.8 to OD600nm = 0.01 (3 × 10^4 CFU), and 100 μL of this cell suspension was added to microtiter plate wells. Cell growth after 48 h incubation at 30 °C with shaking at 200 rpm was determined at 600 nm using a BioTek™ Synergy™ 2 multi-Mode microplate reader controlled using Gen5™ Data Analysis Software version 3.16.10 (BioTek Instruments, Winooski, VT, USA). MIC80 values (80% growth inhibition in the presence of the test drug compared with the untreated control) for each yeast construct were determined as technical triplicates repeated three times for three separate clones.

For assay [4], the system named is S. cerevisiae strain A (AfCyp51A-6×His, native ScCyp51 retained). Kind of assay: MIC80 susceptibility, strain A. The class given is cell-based. The note with it: Saccharomyces cerevisiae, Table 2, SD pH 6.8, 48 h, 30 °C. On the procedure: as §4
Assay [5] concerns S. cerevisiae strain AR (AfCyp51A-6×His, AfCprA2-6×His). Kind of assay: MIC80 susceptibility, strain AR. The class given is cell-based, Saccharomyces cerevisiae. The note with it: Saccharomyces cerevisiae; Table 2; strain AR; SD pH 6.8, 48 h, 30 °C; ± SD; read-out: MIC80. Here is the method: as §4
Assay [6] relates to S. cerevisiae strain ARE Y121F (AfCyp51A-6×His Y121F, AfCprA2, AfErg6-FLAG). The assay can be described thus: MIC80 susceptibility, strain Y121F. The format is cell-based, Saccharomyces cerevisiae. The note with it: Saccharomyces cerevisiae; Table 2; strain Y121F; SD pH 6.8, 48 h, 30 °C; ± SD; read-out: MIC80. On the procedure: as §4
The test system of assay [7] is S. cerevisiae strain ARE T289A (AfCyp51A-6×His T289A, AfCprA2, AfErg6-FLAG). Kind of assay: MIC80 susceptibility, strain T289A. The class given is cell-based, Saccharomyces cerevisiae. To be noted: Saccharomyces cerevisiae, 48 h, pH 6.8, Table 2; strain T289A; SD pH 6.8, 48 h, 30 °C; ± SD; read-out: MIC80. Here is the method: as §4
Assay [8] concerns S. cerevisiae strain ARE Y121F T289A (AfCyp51A-6×His Y121F T289A, AfCprA2, AfErg6-FLAG). The assay can be described thus: MIC80 susceptibility, strain Y121F T289A. To be noted: Saccharomyces cerevisiae; Table 2; strain Y121F T289A; SD pH 6.8, 48 h, 30 °C; ± SD; read-out: MIC80. The format is cell-based, Saccharomyces cerevisiae. On the procedure:
as §4

Assay [9] deals with S. cerevisiae strain ARE I301T (AfCyp51A-6×His I301T, AfCprA2, AfErg6-FLAG). Kind of assay: MIC80 susceptibility, strain I301T. The format is cell-based, Saccharomyces cerevisiae. The note with it: Saccharomyces cerevisiae, 48 h, pH 6.8, Table 2; strain I301T; SD pH 6.8, 48 h, 30 °C; ± SD; read-out: MIC80. On the procedure: as §4
In assay [10] the test system is S. cerevisiae strain B (AfCyp51B-6×His, native ScCyp51 retained). Kind of assay: MIC80 susceptibility, strain B. The format is cell-based. To be noted: Saccharomyces cerevisiae, Table 2, SD pH 6.8, 48 h, 30 °C. Here is the method: as §4
For assay [11], the system named is S. cerevisiae strain BR (AfCyp51B-6×His, AfCprA2-6×His). The assay can be described thus: MIC80 susceptibility, strain BR. The format is cell-based. The note with it: Saccharomyces cerevisiae; Table 2; strain BR; SD pH 6.8, 48 h, 30 °C; ± SD; read-out: MIC80. On the procedure:
as §4

Assay [12] has as its system S. cerevisiae strain BRE (AfCyp51B-6×His, AfCprA2, AfErg6-FLAG). Kind of assay: MIC80 susceptibility, strain BRE. To be noted: Saccharomyces cerevisiae; Table 2; strain BRE; SD pH 6.8, 48 h, 30 °C; ± SD; read-out: MIC80. The format is cell-based, Saccharomyces cerevisiae. On the procedure:
as §4

Numbered stars: 1 amine (or outer) side, 2 acyl side, 3 side chain; on linkers, the order of the positions; unused ones are H or OH. Bridge positions count the residues as written; N and C are the ends. Square brackets hold non-standard residues; d marks the D form. Peptide text beside a SMILES is read from it. * marks the point of attachment. hTyr(3S-OH,4S-OH,3'-OSO3H) = N[C@H](C(=O)O)[C@H](O)[C@@H](O)c1ccc(O)c(OS(=O)(=O)O)c1; Orn(4R-OH,5R-OH) = O=C([C@H](C[C@@H](O)[C@@H](O)N[*:3])N[*:1])[*:2]; Pro(3S-OH,4S-Me) = C[C@H]1CN[C@H](C(=O)O)[C@H]1O; X1 = CCCCCOc1ccc(-c2cc(-c3ccc(C(=O)*)cc3)no2)cc1; Gln(3R-OH) = NC(=O)C[C@@H](O)[C@H](N)C(=O)O; Hyp = O=C(O)[C@@H]1C[C@@H](O)CN1

In general, MIC80 refers to an inhibitory concentration at the 80% level, which refers to growth in some studies and to a panel of isolates in others.

On to `CCC(C)n1ncn(-c2ccc(N3CCN(c4ccc(OCC5COC(Cn6cncn6)(c6ccc(Cl)cc6Cl)O5)cc4)CC3)cc2)c1=O` (stereo not drawn) [ITC], for which the MIC80 in assay [1] was found to be 0.15 ± 0.01 µM; in assay [2], 0.13 ± 0.01 µM.
On to `CCCCCOc1ccc(-c2cc(-c3ccc(C(=O)N[C@H]4C[C@@H](O)[C@@H](O)NC(=O)[C@@H]5[C@@H](O)[C@@H](C)CN5C(=O)[C@H]([C@H](O)CC(N)=O)NC(=O)[C@H]([C@H](O)[C@@H](O)c5ccc(O)c(OS(=O)(=O)O)c5)NC(=O)[C@@H]5C[C@@H](O)CN5C(=O)[C@H]([C@@H](C)O)NC4=O)cc3)no2)cc1` [MCF, Micafungin] (X1-[Orn(4R-OH,5R-OH)]T[Hyp][hTyr(3S-OH,4S-OH,3'-OSO3H)][Gln(3R-OH)][Pro(3S-OH,4S-Me)]; lactam 1-C), for which the MIC80 in assay [3] is 0.22 ± 0.02 µM; in assay [4], 0.19 ± 0.03 µM; in assay [5], 0.17 ± 0.03 µM; in assay [6] it was 0.24 ± 0.02 µM; in assay [7], 0.27 µM; in [8], 0.21 ± 0.01 µM. In addition, the MIC80 in assay [9] came to 0.28 ± 0.01 µM; in assay [10] it was 0.18 ± 0.02 µM; in assay [11], 0.17 ± 0.03 µM; in [12], 0.14 ± 0.01 µM.
